# Laboratory results published in patent publication US8247211B2, “Glycopeptide antibiotics” (American Cyanamid Company, priority 2001, dated 2012).
# Tests used:
# [1] = test system: Staphylococcus aureus-SMITH (GC 4543); test: Acute lethal infection in mice (ED50); format: in vivo; conditions: female CD-1 mice, intraperitoneal challenge, intravenous dose 30 min. after infection, 7 day survival ratios
# Outline: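 ED50 derived from pooled 7-day survival in three separate experiments, five mice per dose level. Single intravenous dose 30 min after intraperitoneal infection of female CD-1 mice with enough bacteria to kill untreated animals in 24-48 h.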
# [2] = test system: Streptococcus sp.; test: In vitro antibacterial evaluation: minimum inhibitory concentration (MIC), broth dilution method; format: cell-based
# Outline: (§1)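 Susceptibility determined by NCCLS-recommended broth dilution (M7-A2), Muller-Hinton II […]. Concentration span 64-0.06 μg/mL, inoculum 5×10^5 CFU/mL. Isolates include strains resistant to methicillin, penicillin and/or vancomycin.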
# [3] = test system: Escherichia coli; test: as above; format: cell-based
# Outline: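 Broth dilution per NCCLS M7-A2 in Muller-Hinton II […], inoculum 5×10^5 CFU/mL, antibiotic tested over 64-0.06 μg/mL. MIC is taken as the lowest concentration that inhibits growth. Panel includes recent clinical isolates resistant to methicillin, penicillin and/or vancomycin.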
# [4] = test system: Enterococcus sp.; test: as above; format: cell-based
# Outline: as §1
# [5] = test system: Staphylococcus sp.; test: as above; format: cell-based; conditions: broth dilution, 18 hours at 35° C.
# Outline: as §1
smiles,measurement,setting,value
"CC(c1ccccc1)C1NC(=O)CNC(=O)C(CO)NC(=O)C(C(O)C2CNC(=N)N2C2OC(CO)C(O)C(O)C2O)NC(=O)C(C(O)C2CNC(=N)N2)NC(=O)C(Cc2ccc(OC3OC(CO)C(OC4OC5COC(c6cccc(-c7ccccc7)c6)OC5C(O)C4O)C(O)C3O)cc2)NC1=O (stereo not drawn) [Example 154, Cyclo[glycyl-β-methylphenylalanyl-O-[4-O-[4,6-O-(3-phenylbenzylidene)hexopyranosyl)-hexopyranosyl]tyrosyl-3-(2-iminoimidazolidin-4-yl)seryl-3-(3-hexopyranosyl-2-iminoimidazolidin-4-yl)serylseryl]]","median effective dose (ED50), Staphylococcus aureus-SMITH (GC 4543)",[1],0.1 mg/kg
same,MIC Streptococcus pneumoniae (ATCC 6301),[2]; strain ATCC 6301,<0.06 µg/mL
same,MIC Streptococcus pneumoniae (GC 1894),[2]; strain GC 1894,<0.06 µg/mL
same,MIC Streptococcus pyogenes (GC 4563),[2]; strain GC 4563,<0.06 µg/mL
same,MIC Streptococcus agalactiae (GC 4564),[2]; strain GC 4564,<0.06 µg/mL
same,MIC Streptococcus pneumoniae (GC 4565),[2]; strain GC 4565,<0.06 µg/mL
same,MIC Escherichia coli (ATCC 25922),[3]; strain ATCC 25922,32 µg/mL
same,MIC Escherichia coli (GC 4559),[3]; strain GC 4559,32 µg/mL
same,MIC Escherichi coli (GC 4560),[3]; strain GC 4560,2 µg/mL
same,MIC Enterococcus avium (GC 4558),"[4]; Enterococcus avium (GC 4558), broth dilution, 18 hours at 35° C.",1 µg/mL
same,MIC Enterococcus faecalis (ATCC 29212),"[4]; Enterococcus faecalis (ATCC 29212), broth dilution, 18 hours at 35° C.",2 µg/mL
same,MIC Enterococcus faecalis (GC 4552),"[4]; Enterococcus faecalis (GC 4552), broth dilution, 18 hours at 35° C.",2 µg/mL
same,MIC Enterococcus faecalis (GC 4553),"[4]; Enterococcus faecalis (GC 4553), broth dilution, 18 hours at 35° C.",2 µg/mL
same,MIC Enterococcus faecalis (GC 4554),"[4]; Enterococcus faecalis (GC 4554), broth dilution, 18 hours at 35° C.",2 µg/mL
same,MIC Enterococcus faecalis (GC 6189),"[4]; Enterococcus faecalis (GC 6189), broth dilution, 18 hours at 35° C.",2 µg/mL
same,MIC Enterococcus faecium (GC 2243),"[4]; Enterococcus faecium (GC 2243), broth dilution, 18 hours at 35° C.",2 µg/mL
same,MIC Enterococcus faecium (GC 4556),"[4]; Enterococcus faecium (GC 4556), broth dilution, 18 hours at 35° C.",2 µg/mL
same,MIC Enterococcus faecium (GC 4557),"[4]; Enterococcus faecium (GC 4557), broth dilution, 18 hours at 35° C.",2 µg/mL
same,MIC Enterococcus faecalis (ATCC 29212),[4]; strain ATCC 29212,2 µg/mL
same,MIC Enterococcus faecalis (GC 2242),[4]; strain GC 2242,2 µg/mL
same,MIC Enterococcus faecium (GC 2243),[4]; strain GC 2243,2 µg/mL
same,MIC Enterococcus faecalis (GC 2691),[4]; strain GC 2691,2 µg/mL
same,MIC Enterococcus faecalis (GC 3059),[4]; strain GC 3059,2 µg/mL
same,MIC Enterococcus faecalis (GC 4552),[4]; strain GC 4552,2 µg/mL
same,MIC Enterococcus faecalis (GC 4553),[4]; strain GC 4553,2 µg/mL
same,MIC Enterococcus faecalis (GC 4554),[4]; strain GC 4554,2 µg/mL
same,MIC Enterococcus faecium (GC 4556),[4]; strain GC 4556,2 µg/mL
same,MIC Enterococcus faecium (GC 4557),[4]; strain GC 4557,2 µg/mL
same,MIC Enterococcus avium (GC 4558),[4]; strain GC 4558,1 µg/mL
same,MIC Enterococcus faecalis (GC 6189),[4]; strain GC 6189,2 µg/mL
same,MIC Coagulase Negative Staphylococcus (GC 4547),[5]; 5×10^5 CFU/mL,2 µg/mL
same,MIC Coagulase Negative Staphylococcus (GC 4548),[5]; 5×10^5 CFU/mL,0.5 µg/mL
same,MIC Coagulase Negative Staphylococcus (GC 4549),[5]; 5×10^5 CFU/mL,0.25 µg/mL
same,MIC Coagulase Negative Staphylococcus (GC 4551),[5]; 5×10^5 CFU/mL,2 µg/mL
same,MIC Coagulase Negative Staphylococcus (GC 6257),[5]; 5×10^5 CFU/mL,1 µg/mL
same,MIC Staphylococcus aureus (ATCC 29213),[5]; 5×10^5 CFU/mL,1 µg/mL
same,MIC Staphylococcus aureus (GC 1131),[5]; 5×10^5 CFU/mL,1 µg/mL
same,MIC Staphylococcus aureus (GC 3051),[5]; 5×10^5 CFU/mL,1 µg/mL
same,MIC Staphylococcus aureus (GC 3053),[5]; 5×10^5 CFU/mL,2 µg/mL
same,MIC Staphylococcus aureus (GC 4541),[5]; 5×10^5 CFU/mL,1 µg/mL
same,MIC Staphylococcus aureus (GC 4542),[5]; 5×10^5 CFU/mL,1 µg/mL
same,MIC Staphylococcus aureus (GC 4544),[5]; 5×10^5 CFU/mL,2 µg/mL
same,MIC Staphylococcus aureus (GC 4545),[5]; 5×10^5 CFU/mL,1 µg/mL
same,MIC Staphylococcus aureus-SMITH (GC 4543),[5]; 5×10^5 CFU/mL,1 µg/mL
same,MIC Staphylococcus haemolyticus (GC 4546),[5]; 5×10^5 CFU/mL,1 µg/mL
same,MIC Staphylococcus aureus (ATCC 29213),[5]; strain ATCC 29213,1 µg/mL
same,MIC Staphylococcus aureus (GC 1131),[5]; strain GC 1131,1 µg/mL
same,MIC Staphylococcus aureus (GC 3051),[5]; strain GC 3051,1 µg/mL
same,MIC Staphylococcus aureus (GC 3053),[5]; strain GC 3053,2 µg/mL
same,MIC Staphylococcus aureus (GC 4541),[5]; strain GC 4541,1 µg/mL
same,MIC Staphylococcus aureus (GC 4542),[5]; strain GC 4542,1 µg/mL
same,MIC Staphylococcus aureus-SMITH (GC 4543),[5]; strain GC 4543,1 µg/mL
same,MIC Staphylococcus aureus (GC 4544),[5]; strain GC 4544,2 µg/mL
same,MIC Staphylococcus aureus (GC 4545),[5]; strain GC 4545,1 µg/mL
same,MIC Staphylococcus haemolyticus (GC 4546),[5]; strain GC 4546,1 µg/mL
same,MIC Coagulase Negative Staphylococcus (GC 4547),[5]; strain GC 4547,2 µg/mL
same,MIC Coagulase Negative Staphylococcus (GC 4548),[5]; strain GC 4548,0.5 µg/mL
same,MIC Coagulase Negative Staphylococcus (GC 4549),[5]; strain GC 4549,0.25 µg/mL
same,MIC Coagulase Negative Staphylococcus (GC 4551),[5]; strain GC 4551,2 µg/mL
same,MIC Coagulase Negative Staphylococcus (GC 6257),[5]; strain GC 6257,1 µg/mL
